Here are results for seven molecules from patent US20230067910A1, “NOVEL COMPOUNDS FOR THE DIAGNOSIS, TREATMENT AND PREVENTION OF DISEASES ASSOCIATED WITH THE AGGREGATION OF ALPHA-SYNUCLEIN” (MODAG GMBH, priority 2019, published 2023).

Experiment [1] deals with T1, alpha-synuclein (fibrils) (Homo sapiens, UniProt P37840).
T1 construct: made in house; host or cells: E. coli
Put plainly: Competition binding assay, protocol 3a, reference ligand [3H]-compound 1, alpha-synuclein fibrils. Particulars: reference ligand [3H]-compound 1 (1 nM). The protocol: (§1) Alpha-synuclein and tau46 were purified from E. coli according to established protocols (Nuscher B, et al., J. Biol. Chem., 2004; 279(21):21966-75), Aβ1-42 was obtained from rPeptide, Watkinsville, Ga., USA. Fibrils were prepared by aggregation of recombinant protein via constant agitation. In detail, 70 μM of alpha-synuclein mixed with 100 mM NaCl in 50 mM Tris, pH 7.0+0.02% NaN3 were incubated at 1,400 rpm, 37° C. for 96 h. 10 μM of tau46 were incubated with 0.03 mg/ml heparin in 50 mM Tris, pH=7.0 at 1,000 rpm, 37° C. for 72 h. Aβ1-42 was solved in 20 mM NaPi, pH=8.0+0.2 mM EDTA+0.02% NaN3 (Deeg A A, et al., Biochim. Biophys. Acta, 2015; 1850(9): 1884-90; Goedert M, et al. Nature, 1996; 383(6600): 550-3).
(§2) A fixed concentration of sonicated human recombinant αSYN (200 nM/well) or tau46 (208 nM/well) fibrils diluted in phosphate buffered saline (PBS) were incubated in low binding plates (96 well micro test plate, Ratiolab GmbH, Dreieich, Germany) together with 1 nM [^3H]-compound 1 and 1:4 serial dilutions of the cold compound of interest starting from 1 μM diluted in 50 mM Tris-base, 10% EtOH, 0.05% Tween20, pH 7.4. For the calculation of Ki values the KD value of compound 1 toward sonicated human recombinant αSYN fibrils was set to 3 nM.
(§3) Assay plates were incubated under agitation at 37° C. for 2 h covered by plastic foil (Resealable tape, PerkinElmer, Waltham, Mass., USA). Prior to harvesting, a filter (Printed filtermat B, PerkinElmer, Waltham, Mass., USA) was incubated with 5 mg/mL polyethylenimine (PEI, Poly(ethyleneimine) solution, Sigma Aldrich Chemie GmbH, Taufkirchen, Germany) at 4° C. for 30 min. After incubation, bound and free ligands were separated by vacuum filtration using a harvester (Filtermate harvester, PerkinElmer, Waltham, Mass., USA). The filter was washed three times with buffer cooled to 4° C. and subsequently dried in the microwave for 2 min at medium power. The filter was sealed in a plastic bag (Sample bag for MicroBeta®, PerkinElmer, Waltham, Mass., USA) together with added scintillator (BETAPLATE SCINT, PerkinElmer, Waltham, Mass., USA). Accumulation of tritium was counted in a liquid scintillation counter (Wallac MicroBeta® TriLux, 1450 LSC & Luminescence Counter, PerkinElmer, Waltham, Mass., USA) immediately. Radioactivity was plotted against the increasing tritium-labeled compound or cold compound concentrations. Data points were fitted using nonlinear regression analysis in GraphPad Prism (GraphPad Software, Inc., Version 7.03, La Jolla, Calif., USA).
(§4) The fibril competition assay provides Ki values. Ki is a quantitative measure that represents the concentration of the non-radioactive tested compound (competitor ligand) required to replace 50% of a reference compound, in this case [H]-compound 1 (1 nM) or [H]-compound 2 (1 nM), which is bound to the target structures (1 nM), in our case recombinant alpha-synuclein and tau46 fibrils. This assay is suitable for a screening of non-radioactive ligands.

Another experiment deals with T2, tau46 (fibrils) (Homo sapiens, UniProt P10636).
T2 construct: made in house; host or cells: E. coli
T2 sequence (P10636 1-412 isoform P10636-7): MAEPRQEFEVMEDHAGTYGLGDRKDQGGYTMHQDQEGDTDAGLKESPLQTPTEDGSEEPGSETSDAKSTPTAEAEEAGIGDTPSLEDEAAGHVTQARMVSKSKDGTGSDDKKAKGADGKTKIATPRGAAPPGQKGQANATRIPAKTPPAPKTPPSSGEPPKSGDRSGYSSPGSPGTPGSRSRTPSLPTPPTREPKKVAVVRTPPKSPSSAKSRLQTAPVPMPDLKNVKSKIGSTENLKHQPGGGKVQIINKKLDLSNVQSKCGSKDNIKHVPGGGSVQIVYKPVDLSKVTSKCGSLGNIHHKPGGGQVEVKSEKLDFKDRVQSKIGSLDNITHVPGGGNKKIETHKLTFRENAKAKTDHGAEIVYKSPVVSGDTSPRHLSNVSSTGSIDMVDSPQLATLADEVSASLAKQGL
Put plainly: Competition binding assay, protocol 3a, reference ligand [3H]-compound 1, tau46 fibrils. To be noted: Experiment B, reference ligand [3H]-compound 1 (1 nM). The method, then: as §1, §2, §3, §4

The target in experiment [2] is T3, alpha-synuclein (sonicated fibrils) (Homo sapiens, UniProt P37840).
T3 construct: made in house; host or cells: E. coli
The experiment is described as follows: Modified competition binding assay, protocol 3b, reference ligand [3H]-compound 2. Particulars: Table 5, reference ligand [3H]-compound 2 (1 nM). The method, then: as §1
For competition binding experiments, a fixed concentration of recombinant αSYN fibrils (sonicated, 15 nM/well) was incubated with 1 nM [^3H]-compound 1 or [3H]-compound 2 and decreasing concentrations of a serial dilution of non-labeled competitor (serial dilution 1:4 or 1:3.5 or 1:3 providing the concentration ranges of non-labeled competitor 1 μM-[…] 1 μM-4 nM or 1 μM-[…], respectively) in 30 mM Tris-HCl, 10% ethanol, 0.05% Tween20, pH 7.4 in a total volume of 200 μL/well. Plates were incubated for 4.5 hours at RT covered by removable sealing tape (PerkinElmer, Waltham, Mass., USA).
Filtration and readout were performed as described for saturation binding assays. [^3H]-labeled ligand binding [in CMP] was plotted against increasing competitor concentrations and data points were fitted using non-linear regression analysis to calculate the IC50 and Ki values (GraphPad Software, Inc., Version 7.03, La Jolla (Calif.), USA). In the competition binding assay with sonicated recombinant αSYN fibrils, the calculation of Ki values was done based on KD values of 0.6 nM and 0.2 nM for compound 1 and compound 2, respectively.
as §4

In experiment [3] the test system is H4 cells overexpressing alpha-synuclein hemi-Venus fusion constructs (V1S+SV2). Put plainly: Cellular model of aggregated alpha-synuclein-dependent toxicity, V1S+SV2 H4 cells. Particulars: 10 μM compound, 100 μM FeCl3, 0.75% DMSO, 48 h; for inhibition at 10 µM: read-out: Change in fraction of condensed nuclei (rel. to DMSO control) [%]. It is filed as cell-based. The method, then:
(§5) To identify potential therapeutically useful effects, compounds were tested in two cellular models of aggregated alpha-synuclein-dependent toxicity in H4 cells. These cellular models allow for the inducible overexpression of alpha-synuclein hemi-Venus fusion constructs (V1S+SV2) or full-length alpha-synuclein (the model is described in detail in: Bartels M, Weckbecker D, Kuhn P H, Ryazanov S, Leonov A, Griesinger C, Lichtenthaler S F, Bötzel K, Giese A: Iron-mediated aggregation and toxicity in a novel neuronal cell culture model with inducible alpha-synuclein expression, Sci. Rep. 2019 Jun. 24; 9(1):9100). Moreover, addition of DMSO and FeCl3 promotes the aggregation of alpha-synuclein which is associated with an increase in cytotoxicity. The cell culture assay uses these effects by determining the change in the number of cells and the change in the percentage of condensed nuclei, which is indicative of apoptosis, in order to obtain information on which compounds show the most promising effects and thus might be therapeutically useful.
(§6) In these experiments, cells were incubated with 100 μM FeCl3 and 0.75% DMSO in the presence of 10 μM anle138c as a positive control, compounds 1 to 19 (10 μM), or DMSO as a negative control. After 48 h, the cells were imaged with an OPERA high-throughput imaging system and analyzed using Acapella software (Perkin Elmer). […] A reduction in the fraction of condensed nuclei (in the absence of a strong reduction in cell number) is indicative of a beneficial therapeutic effect.

For experiment [4], the system named is H4 cells overexpressing full-length alpha-synuclein. Put plainly: Cellular model of aggregated alpha-synuclein-dependent toxicity, full-length alpha-synuclein H4 cells. In kind it is cell-based. To be noted: 10 μM compound, 100 μM FeCl3, 0.75% DMSO, 48 h; for inhibition at 10 µM: read-out: Change in fraction of condensed nuclei (rel. to DMSO control) [%]. The method, then: as §5, §6

Experiment [5] has as its target T3, alpha-synuclein (sonicated fibrils). The experiment is described as follows: Modified competition binding assay, protocol 3b, reference ligand [3H]-compound 1. Particulars: Table 4b, reference ligand [3H]-compound 1 (1 nM), read-out: Ki (nM) alpha-synuclein (sonicated fibrils). The protocol:
Fibrils were prepared by aggregation of recombinant protein via constant agitation. In detail, 70 μM of alpha-synuclein mixed with 100 mM NaCl in 50 mM Tris, pH 7.0+0.02% NaN3 were incubated at 1,400 rpm, 37° C. for 96 h. 10 μM of tau46 were incubated with 0.03 mg/ml heparin in 50 mM Tris, pH=7.0 at 1,000 rpm, 37° C. for 72 h.
Plates were incubated for 4.5 hours at RT covered by removable sealing tape (PerkinElmer, Waltham, Mass., USA).
Filtration and readout were performed as described for saturation binding assays.
The fibril competition assay provides Ki values. […] This assay is suitable for a screening of non-radioactive ligands.

The target in experiment [6] is T4, aggregated alpha-synuclein (Homo sapiens, UniProt P37840).
T4 construct: made in house; host or cells: E. coli
The experiment is described as follows: Saturation binding assay, protocol 2a, alpha-synuclein fibrils. Particulars: saturation assay protocol 2a, [3H]-labeled compound; read-out: KD [nM] for aggregated alpha-synuclein. The method, then: as §1
Sonicated αSYN (0.04 μM) or tau46 (0.4 μM) or Aβ1-42 (6 μM) fibrils diluted in PBS were incubated with decreasing concentrations of [^3H]-labeled compound (48 nM or 24 nM-[…]) in 50 mM Tris-base, 10% ethanol, 0.05% Tween20, pH 7.4. To determine non-specific binding, the respective unlabeled compound (400 nM) was added to a duplicate set of binding reactions.
as §3, with “2 h,” for “2 h”, “microwave oven” for “microwave”, “power. Melt-on scintillator sheets (MeltiLex™ B/HS, PerkinElmer, Waltham, Mass., USA) were molten into the filter using a heating plate set to 120° C. After solidifying at room temperature, the” for “power. The”, “MicroBeta®,” for “MicroBeta®, PerkinElmer, Waltham, Mass., USA) together with added scintillator (BETAPLATE SCINT,”
The fibril-binding saturation assay provides KD values. This assay is performed with directly radioactively labeled compounds (e.g. ^3H labeling). The saturation binding assays were performed using as target structures fibrillar aggregates produced from recombinant human alpha-synuclein, Aβ1-42, and tau46, respectively.

[7] abbreviates: Experiment A, read-out: Ki (nM) alpha-synuclein (fibrils).
Where [8] appears, read: Experiment B, read-out: Ki (nM) alpha-synuclein (sonicated fibrils).

Like-named read-outs stand apart in the source and are kept apart here. Where only a bound is given, the exact number is not on record here.

In general, Ki refers to the equilibrium dissociation constant of an inhibitor or competing ligand from its target. As to `CN(C)c1ccc(-c2cc(-c3ccnc(F)c3)[nH]n2)cc1` [Compound 3, 4-[5-(2-fluoropyridin-4-yl)-1H-pyrazol-3-yl]-N,N-dimethylaniline], the Ki was less than 0.1 nM in experiment [1] (setting [7]), 3 nM in experiment [1] (setting [8]), 4 nM at tau46 (fibrils) and 0.95 nM in experiment [2]. The “Change in cell number (rel. to DMSO control) [%]” value (from here on “Change in cell number … [%]”) was −11.3% in experiment [3] and −34.8% in experiment [4]. Also, the inhibition at 10 µM in experiment [3] worked out at 31.9%; in experiment [4] it was 79.1%.

For `CN(C)c1ccc(-c2cc(-c3ccnc(Br)c3)[nH]n2)cn1` [Compound 4, 5-[5-(2-bromopyridin-4-yl)-1H-pyrazol-3-yl]-N,N-dimethylpyridin-2-amine], the Ki stood at 8 nM in experiment [1] (setting [7]), 13 nM in experiment [1] (setting [8]), 31 nM at tau46 (fibrils) and 0.7 nM in experiment [2]. Also, the “Change in cell number … [%]” value is on record as −36.9% in experiment [3] and −48.6% in experiment [4]. Moreover, the inhibition at 10 µM is -33.7% in experiment [3] and 30.1% in experiment [4].

For `Brc1cncc(-c2cc(-c3ccc4c(c3)OCO4)n[nH]2)c1` [Compound 10], the Ki in experiment [1] (setting [7]) was 34 nM; in experiment [1] (setting [8]) it was 25 nM; on tau46 (fibrils) it was more than 100 nM; in experiment [2], 7.8 nM. Further, the “Change in cell number … [%]” value in experiment [3] is recorded as −32.8%; in experiment [4], −35.3%. Also, the inhibition at 10 µM was found to be 50.3% in experiment [3] and 60.2% in experiment [4].

As to `Brc1cccc(-c2cc(-c3ccc4c(c3)OCO4)n[nH]2)n1` [Compound 15, 2-[3-(1,3-benzodioxol-5-yl)-1H-pyrazol-5-yl]-6-bromopyridine], the Ki in experiment [5] amounted to 6.7 nM; in experiment [2] it was 6.6 nM. The entries for the “Change in cell number … [%]” value in experiment [3] and in experiment [4] were −11.3% and −11.2%, respectively. Further, the inhibition at 10 µM was -23.1% in experiment [3] and -20.3% in experiment [4].

For `Brc1ccnc(-c2cc(-c3ccc4c(c3)OCO4)n[nH]2)c1` [Compound 16, 2-[3-(1,3-benzodioxol-5-yl)-1H-pyrazol-5-yl]-4-bromopyridine], the Ki in experiment [5] was 5.2 nM; in experiment [2] it was 4.7 nM. For the same molecule, the “Change in cell number … [%]” value is listed as −40.2% in experiment [3] and −47.1% in experiment [4]. Also, the inhibition at 10 µM in experiment [3] is -56.8%; in experiment [4], -0.8%.

As usually defined, the Kd is a measure of binding affinity in units of concentration. Turning to `Cn1nc(-c2ccc3c(c2)OCO3)cc1-c1ccnc(Br)c1` [Compound 18, 4-[3-(1,3-benzodioxol-5-yl)-1-methyl-1H-pyrazol-5-yl]-2-bromopyridine], the Kd in experiment [6] worked out at 126 nM. Further, in experiment [3], the “Change in cell number … [%]” value was −11.8% and the inhibition at 10 µM was determined as 19.9%. Further, in experiment [4], the “Change in cell number … [%]” value is reported as −21.3% and the inhibition at 10 µM came out at 18.2%.

`CNc1ccc(-c2cc(-c3cccc(Br)n3)[nH]n2)cc1` [Compound 58, 4-[5-(6-bromopyridin-2-yl)-1H-pyrazol-3-yl]-N-methylaniline]: the Ki in experiment [5] stood at 5.1 nM; in experiment [2], 5 nM.
